# According to patent US4582827A, “Pesticidal diphenylaziridines” (priority 1983, dated 1986):
# How the values were obtained:
# [1] = system: tobacco hornworm (Manduca sexta) larvae; assay: Tobacco hornworm growth and developmental responses to feeding on diets containing the compounds; assay type: in vivo; conditions: for larval death (words in table) / larval mortality / symptoms of larvae / time until all larvae dead: 5 mM in diet; for oral activity: diet, Example 2; for larval mortality (acute toxicity): in 24-72 hours
# Protocol: The compounds produced and described in Example 1 were then tested for pesticidal activity against the tobacco hornworm (Manduca sexta). The screening procedure for these tests began with the larval stage and continued through the pupal and adult stages and finally evaluated egg production. The studies thus permitted the evaluation of the effects of the compounds over several subsequent developmental stages in the total life cycle of the insect, giving estimates of acute toxicity (insecticidalor larvicidal activity) as well as prolonged or delayed effects on development (growth regulation) and reproduction (chemosterilization). The latter are of special importance in conjunction with the integrated pest management approach to insect control.
# The test compounds were incorporated into the artificial diet of tobacco hornworm larvae and their subsequent growth and developmental responses were monitored using the following parameters: larval mortality including determination of LD50 values, rate of larval development and weight gain, percent pupation, pupal weight and degree of deformities, percent adult emergence and measures of reproductive capacity such as the number of developed ooctyes, fecundity and fertility. The protocol for the screening tests has been developed over a number of years by Dahlman et al., Comp. Biochem. Physiol. 51A, 33, (1975); Comp. Biochem. Physiol., 52A, 105 (1975); Ent. Exp. et Appl., 22, 123 (1977); Palumbo and D. L. Dahlman, J. Econ. Entomol. 71, 674 (1978); D. L. Dahlman, Ent. Exp. et Appl., 24, 327 (1978).
# Each treatment used 15 newly ecdysed fifth-instar larvae. Death of larvae within a few hours to several days of initial exposure was considered to be acute toxicity. However, the compounds may reduce the maximum size attained by larvae and/or may retard growth so that larvae require additional time to attain their maximum size. Developmental parameters subsequent to the feeding stage also may be affected. […] Mortality may occur in the pupal stage or emerging adults may have wrinkled wings or other deformities. The number of eggs produced by treated females may be reduced and/or unfertile. Although acute toxicity is desirable in the control of any insect, the delayed effects which result in poor survival and reduced reproductive capacity are significant factors in the long-range program of pest management systems.
# Continuous cultures of M. sexta are maintained according to the procedures of Yamamoto, J. Econ. Entomol., 62, p. 1427 (1969). Ingredients of the diet formulation include sugar, casein, wheat germ oil, cholesterol, salt mixture, yeast, vitamins, antioxidants and fungal inhibitors, such as ascorbic acid, sorbic acid, formaldehyde and methyl-p-benzoate. All are incorporated into a liquid agar base which, when poured into holding pans, solidifies to form an adequate substrate upon which the insect larvae feed. Nearly any test material can be uniformly incorporated into such a diet. Thus, exposure to experimental compounds can be evaluated during all or any part of the larval stage. In addition, chronic or long-term effects in subsequent life stages can also be monitored.
# The results from these studies, in which the 1,2-diphenylaziridines of Example 1 were incorporated singly into the diet of M. sexta at a concentration of 5 mM are presented in the following Table I.
# [2] = system: tobacco hornworm larvae (newly ecdysed fifth-instar); assay: Topical application to tobacco hornworm larvae; assay type: in vivo, Manduca sexta
# Protocol: The test compounds were dissolved either in acetone or hexane and applied to the integument of the test insect with a micro applicator. Newly ecdysed fifth-instar tobacco hornworm larvae weighing between 1-1.5 g were used and toxicity data were obtained in the same way as previously described.
# [3] = system: H. virescens; assay: Incorporation into H. virescens diet; assay type: in vivo, Heliothis virescens; conditions: as much as 20 mM in diet
# Protocol: Compounds 1, 10, 11, 13 and 14 were incorporated into H. virescens diet in the same manner as M. Sexta. Diets containing as much as 20 mM of each compound had little effect on larval development time, pupal weight or time to adult emergence.
# [4] = system: Salmonella typhimurium strains TA 98, TA 100, TA 1535, TA 1537, TA 1538, TA 1978; assay: Ames assay (spot test), revertant colonies; assay type: cell-based
# Protocol: This means that aziridine compounds, 1, 10, or 11, will not cause mutations in DNA arising from potential changes in frame shift and/or base pairing. Compounds 1, 10 and 11 were tested for mutagenic properties using the following experimental procedure.
# Potential mutagenic and carcinogenic properties of the compounds were evaluated with standard Ames assay procedures (Ames et al, "Mutation Res.", 31, p. 347, 1975). This assay used strains of Salmonella typhimurium selected for sensitivity and specificity in being reverted from a histidine requirement back to prototrophy by a wide variety of mutagens. Potential changes in frameshift were evaluated using strains TA 98, TA 1537 and TA 1538, while changes in base pairing were detected using strains TA 100 and TA 1535. In addition, strain TA 1978 was used, in combination with TA 1538, to evaluate whether the agent killed bacteria by damage to DNA that could be repaired by this strain. Initially, the compounds were screened using the spot test, in which 1000 μgm of material dissolved in 10 μl of DNSO was applied to the middle of the plate.
# Dose-response tests were not performed because the results were negative. All the tests were carried out in the presence and absence of an S9 rat liver preparation and contained a positive control (2-acetylaminofluorene,AAF) and a negative control (DMSO).
compound,measurement,setting,value
Clc1ccc(N2CC2c2ccccc2Cl)cc1 (centres unmarked) [Compound 11],% Adult Emergence,[1]; 1 mM in diet,100%
same,% Adults,[1]; 1 mM in diet,100%
same,% Malformed Adults,[1]; 1 mM in diet,7%
same,% Pupation,[1]; 1 mM in diet,100%
same,Days to Max Wt,[1]; 1 mM in diet,5.9 ± .1 days
same,Max Larval Wt,[1]; 1 mM in diet,8.29 g
same,Mean No. of Eggs,[1]; 1 mM in diet,74 ± 22
same,No. of female Adults,[1]; 1 mM in diet,4
same,Total No. of Adults,[1]; 1 mM in diet,14
same,larval weight,[1]; 1 mM in diet,a slight reduction in larval weight
same,% Adult Emergence,[1]; 2.5 mM in diet,100%
same,% Adults,[1]; 2.5 mM in diet,60%
same,% Malformed Adults,[1]; 2.5 mM in diet,0%
same,% Pupation,[1]; 2.5 mM in diet,60%
same,Days to Max Wt,[1]; 2.5 mM in diet,7.7 ± 0.6 days
same,Max Larval Wt,[1]; 2.5 mM in diet,6.77 g
same,Mean No. of Eggs,[1]; 2.5 mM in diet,15 ± 7
same,No. of female Adults,[1]; 2.5 mM in diet,7
same,Total No. of Adults,[1]; 2.5 mM in diet,9
same,maximum larval weight and mean number of eggs,[1]; 2.5 mM in diet,reduced maximum larval weight and the mean number of eggs
same,percent pupation,[1]; 2.5 mM in diet,lowered the percent pupation
same,larval death (words in table),[1],ALL DEAD WITHIN 24 HR OF START OF TEST
same,larval mortality,[1],all or nearly all larvae died
same,symptoms of larvae,[1],"extreme agitation of larvae, oral and anal expulsion of fluids and ultimately, death"
same,time until all larvae dead,[1],≤ 24 h
same,oral activity,[1],good oral activity
same,larval mortality (acute toxicity),[1]; summary of Tables I and II,100%
same,time to 100% larval mortality,[1]; summary of Tables I and II,24 to 72 h
same,larvae killed,"[2]; 500 μg/larva (400 ppm), within 48 hr",80%
same,developmental effects,[2]; 250 ppm topical,"increased larval developmental time, reduced maximum weight and fewer numbers of eggs"
same,"mortality at 250 ppm, 250 µg/g","[2]; Manduca sexta, 250 ppm topical, read-out: larval mortality",30%
same,topical activity against the tobacco hornworm (comparison in words),[2]; topical,less active than Compound 13
same,"effect on larval development time, pupal weight or time to adult emergence",[3],little effect
same,"Mean number of revertant colonies per plate, TA 98 +S9","[4]; strain TA 98, +S9",44.7 colonies per plate
same,"Mean number of revertant colonies per plate, TA 98 -S9","[4]; strain TA 98, -S9",27.3 colonies per plate
same,"Mean number of revertant colonies per plate, TA 100 +S9","[4]; strain TA 100, +S9",58.3 colonies per plate
same,"Mean number of revertant colonies per plate, TA 100 -S9","[4]; strain TA 100, -S9",28.0 colonies per plate
same,"Mean number of revertant colonies per plate, TA 1535 +S9","[4]; strain TA 1535, +S9",15.3 colonies per plate
same,"Mean number of revertant colonies per plate, TA 1535 -S9","[4]; strain TA 1535, -S9",16.3 colonies per plate
same,"Mean number of revertant colonies per plate, TA 1537 +S9","[4]; strain TA 1537, +S9",13.7 colonies per plate
same,"Mean number of revertant colonies per plate, TA 1537 -S9","[4]; strain TA 1537, -S9",9.7 colonies per plate
same,"Mean number of revertant colonies per plate, TA 1538 +S9","[4]; strain TA 1538, +S9",26.0 colonies per plate
same,"Mean number of revertant colonies per plate, TA 1538 -S9","[4]; strain TA 1538, -S9",13.3 colonies per plate
same,"Mean number of revertant colonies per plate, TA 1978 +S9","[4]; strain TA 1978, +S9",196.0 colonies per plate
same,"Mean number of revertant colonies per plate, TA 1978 -S9","[4]; strain TA 1978, -S9",209.7 colonies per plate
same,mutagenicity,[4]; with and without S9 / mammalian liver enzymes,not mutagenic
FC(F)(F)c1ccc(N2CC2c2ccccc2Cl)cc1 (centres unmarked) [Compound 14],% Adult Emergence,[1]; 1 mM in diet,100%
same,% Adults,[1]; 1 mM in diet,93%
same,% Malformed Adults,[1]; 1 mM in diet,36%
same,% Pupation,[1]; 1 mM in diet,93%
same,Days to Max Wt,[1]; 1 mM in diet,5.8 ± .1 days
same,Max Larval Wt,[1]; 1 mM in diet,9.20 g
same,Mean No. of Eggs,[1]; 1 mM in diet,83 ± 13
same,No. of female Adults,[1]; 1 mM in diet,9
same,Total No. of Adults,[1]; 1 mM in diet,14
same,% Adult Emergence,[1]; 2.5 mM in diet,8%
same,% Adults,[1]; 2.5 mM in diet,7%
same,% Malformed Adults,[1]; 2.5 mM in diet,100%
same,% Pupation,[1]; 2.5 mM in diet,93%
same,Days to Max Wt,[1]; 2.5 mM in diet,6.6 ± 0.2 days
same,Max Larval Wt,[1]; 2.5 mM in diet,8.03 g
same,Mean No. of Eggs,[1]; 2.5 mM in diet,0
same,No. of female Adults,[1]; 2.5 mM in diet,1
same,Total No. of Adults,[1]; 2.5 mM in diet,1
same,malformed adults,[1]; 2.5 mM in diet,a large percentage
same,maximum larval weight and mean number of eggs,[1]; 2.5 mM in diet,reduced maximum larval weight and the mean number of eggs
same,larval death (words in table),[1],ALL DEAD WITHIN 3 DAYS
same,larval mortality,[1],all or nearly all larvae died
same,symptoms of larvae,[1],"extreme agitation of larvae, oral and anal expulsion of fluids and ultimately, death"
same,time until all larvae dead,[1],≥ 48 h
same,mortality at 2500 µM,"[1]; Manduca sexta, po, 2.5 mM in diet, read-out: pupal mortality",85%
same,oral activity,[1],good oral activity
same,larval mortality (acute toxicity),[1]; summary of Tables I and II,100%
same,pupal mortality,[1]; summary of Tables I and II,caused pupal mortality
same,time to 100% larval mortality,[1]; summary of Tables I and II,24 to 72 h
same,topical effect,[2]; 2000 μg/larvae (1600 ppm),ineffective
same,"effect on larval development time, pupal weight or time to adult emergence",[3],little effect
